For 15 compounds, T/C results are on record in PubChem BioAssay AID248 (DTP/NCI, 2004).

The experiment has as its system L1210 leukemia ip in BDF1 mice, survival T/C. Put plainly: NCI In Vivo Anticancer Drug Screen. Data for tumor model L1210 Leukemia (intraperitoneal) in B6D2F1 (BDF1) mice. Particulars: endpoint: mean survival time, higher = longer survival. An outline of the steps:
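Transplantable tumor model; survival measured in treated vs vehicle control mice. Value = treated/control.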

[1] abbreviates: dose: 100.0 mg/kg/injection, schedule: Q01DX009 (ip), vehicle: saline with Tween-80.
[2] abbreviates: dose: 100.0 mg/kg/injection, schedule: Q04DX003 (ip), vehicle: saline with Tween-80.
Where [3] appears, read: dose: 200.0 mg/kg/injection, schedule: Q01DX009 (ip), vehicle: saline with Tween-80.
[4] abbreviates: dose: 200.0 mg/kg/injection, schedule: Q04DX003 (ip), vehicle: saline with Tween-80.
Setting [5] is: dose: 400.0 mg/kg/injection, schedule: Q01DX009 (ip), vehicle: saline with Tween-80.
The mark [6] stands for this setting: dose: 400.0 mg/kg/injection, schedule: Q04DX003 (ip), vehicle: saline with Tween-80.
The mark [7] stands for this setting: dose: 50.0 mg/kg/injection, schedule: Q01DX009 (ip), vehicle: saline with Tween-80.
Where [8] appears, read: dose: 50.0 mg/kg/injection, schedule: Q01DX001 (ip), vehicle: carboxymethylcellulose (CMC).
[9] abbreviates: dose: 100.0 mg/kg/injection, schedule: Q01DX001 (ip), vehicle: carboxymethylcellulose (CMC).
Where [10] appears, read: dose: 200.0 mg/kg/injection, schedule: Q01DX001 (ip), vehicle: carboxymethylcellulose (CMC).
Where [11] appears, read: dose: 400.0 mg/kg/injection, schedule: Q01DX001 (ip), vehicle: carboxymethylcellulose (CMC).

SMILES strings stand for the structures. “And” between values parts separate entries of the source, which are not always exact repeats. Equal entries are not always repeated. Toxic doses and inconclusive results are not listed.

`O=c1oc(-c2ccccc2)nc2cc(Cl)ccc12`: the T/C runs as follows: (dose: 25.0 mg/kg/injection, schedule: Q04DX003 (ip), vehicle: saline with Tween-80) 104 % of control; (dose: 50.0 mg/kg/injection, schedule: Q04DX003 (ip), vehicle: saline with Tween-80) 92 % of control; under setting [1], 90 % of control; under setting [2], 96 % of control and 103 % of control and 88 % of control; under setting [3], 87 % of control; under setting [4], 98 % of control. Besides, the T/C is, setting by setting: under setting [5], 92 % of control; under setting [6], 90 % of control.
Regarding `CC(C)(Oc1ccc(Cl)cc1)C(=O)O` (tested in a mixture with another compound), the T/C was 94 % of control (dose: 100.0 mg/kg/injection, schedule: Q04DX003 (ip), vehicle: saline); 91 % of control (dose: 200.0 mg/kg/injection, schedule: Q04DX003 (ip), vehicle: saline); 91 % of control (dose: 400.0 mg/kg/injection, schedule: Q04DX003 (ip), vehicle: saline).
For `CC(C)(C)[Se]C(=N)N`, the T/C is 101 % of control (dose: 18.8 mg/kg/injection, schedule: Q01DX001 (ip), vehicle: saline with Tween-80); 100 % of control (dose: 37.5 mg/kg/injection, schedule: Q01DX001 (ip), vehicle: saline with Tween-80); 107 % of control (dose: 50.0 mg/kg/injection, schedule: Q01DX001 (ip), vehicle: saline with Tween-80); 95 % of control (dose: 75.0 mg/kg/injection, schedule: Q01DX001 (ip), vehicle: saline with Tween-80).
For `CC(C)=C(CO)CCC(C)C`, the T/C under setting [7] is 100 % of control, the T/C under setting [1] was 94 % of control and the T/C under setting [3] is 89 % of control.
Turning to `CN(C)CC(C)(C)C(=O)c1ccccc1`, the T/C (dose: 25.0 mg/kg/injection, schedule: Q04DX002 (ip), vehicle: saline) was 100 % of control; the T/C (dose: 50.0 mg/kg/injection, schedule: Q04DX002 (ip), vehicle: saline) is 100 % of control; the T/C (dose: 100.0 mg/kg/injection, schedule: Q04DX002 (ip), vehicle: saline) was 104 % of control.
In the case of `Cc1nc(N)c(=O)[nH]c1C`, the T/C (dose: 100.0 mg/kg/injection, schedule: Q01DX001 (ip), vehicle: Klucel (hydroxypropylcellulose) (HPC)) is 104 % of control; the T/C under setting [1] is 90 % of control; the T/C under setting [2] was 100 % of control; the T/C (dose: 200.0 mg/kg/injection, schedule: Q01DX001 (ip), vehicle: Klucel (hydroxypropylcellulose) (HPC)) is 97 % of control; the T/C under setting [3] was 112 % of control; the T/C under setting [4] was 105 % of control. Moreover, the T/C (dose: 400.0 mg/kg/injection, schedule: Q01DX001 (ip), vehicle: Klucel (hydroxypropylcellulose) (HPC)) is 97 % of control; the T/C under setting [5] is 104 % of control; the T/C under setting [6] is 114 % of control.
Turning to `CC(C)(C)C(=O)Nc1ccc(NS(=O)(=O)c2ccccc2)cc1`, the T/C is, setting by setting: under setting [2], 102 % of control; under setting [4], 89 % of control; under setting [6], 88 % of control.
Take `O=C(COc1cccc(Cl)c1)NCc1ccc([N+](=O)[O-])cc1`: the T/C is, setting by setting: (dose: 100.0 mg/kg/injection, schedule: Q01DX001 (ip), vehicle: saline with Tween-80) 96 % of control; under setting [1], 94 % of control; (dose: 200.0 mg/kg/injection, schedule: Q01DX001 (ip), vehicle: saline with Tween-80) 93 % of control; under setting [3], 100 % of control; (dose: 400.0 mg/kg/injection, schedule: Q01DX001 (ip), vehicle: saline with Tween-80) 101 % of control; under setting [5], 97 % of control.
`O=C(O)c1ccc(NC(C[N+](=O)[O-])C(F)(F)C(F)(F)C(F)(F)F)cc1` (stereo not drawn): the T/C is, setting by setting: (dose: 25.0 mg/kg/injection, schedule: Q04DX003 (ip), vehicle: Klucel (hydroxypropylcellulose) (HPC)) 103 % of control; (dose: 50.0 mg/kg/injection, schedule: Q04DX003 (ip), vehicle: Klucel (hydroxypropylcellulose) (HPC)) 93 % of control; (dose: 100.0 mg/kg/injection, schedule: Q01DX009 (ip), vehicle: saline sonified) 95 % of control; (dose: 100.0 mg/kg/injection, schedule: Q04DX003 (ip), vehicle: Klucel (hydroxypropylcellulose) (HPC)) 103 % of control and 115 % of control; (dose: 200.0 mg/kg/injection, schedule: Q01DX009 (ip), vehicle: saline sonified) 86 % of control; (dose: 200.0 mg/kg/injection, schedule: Q04DX003 (ip), vehicle: Klucel (hydroxypropylcellulose) (HPC)) 102 % of control. In addition, the T/C is 88 % of control (dose: 400.0 mg/kg/injection, schedule: Q01DX009 (ip), vehicle: saline sonified) and 100 % of control (dose: 400.0 mg/kg/injection, schedule: Q04DX003 (ip), vehicle: Klucel (hydroxypropylcellulose) (HPC)).
`Nc1cc(Cl)c2ncn(C3OC(CO)C(O)C3O)c2n1` (stereo not drawn): the T/C (dose: 100.0 mg/kg/injection, schedule: Q01DX001 (ip), vehicle: saline) was 98 % of control; the T/C (dose: 100.0 mg/kg/injection, schedule: Q01DX005 (ip), vehicle: saline) is 110 % of control; the T/C (dose: 200.0 mg/kg/injection, schedule: Q01DX001 (ip), vehicle: saline) was 101 % of control; the T/C (dose: 200.0 mg/kg/injection, schedule: Q01DX005 (ip), vehicle: saline) was 115 % of control; the T/C (dose: 400.0 mg/kg/injection, schedule: Q01DX001 (ip), vehicle: saline) is 114 % of control.
In the case of `CC1(C)N=C(N)N=C(N)N1c1cccc(C#N)c1`, the T/C was 118 % of control (dose: 7.0 mg/kg/injection, schedule: Q01DX009 (ip), vehicle: saline); 116 % of control (dose: 10.0 mg/kg/injection, schedule: Q01DX009 (ip), vehicle: saline); 113 % of control (dose: 16.0 mg/kg/injection, schedule: Q01DX009 (ip), vehicle: saline); 108 % of control (dose: 17.0 mg/kg/injection, schedule: Q01DX009 (ip), vehicle: saline); 123 % of control (dose: 25.0 mg/kg/injection, schedule: Q01DX009 (ip), vehicle: saline); 151 % of control and 161 % of control (dose: 37.0 mg/kg/injection, schedule: Q01DX009 (ip), vehicle: saline). Besides, the T/C (dose: 37.5 mg/kg/injection, schedule: Q01DX009 (ip), vehicle: saline) was 120 % of control; the T/C (dose: 56.0 mg/kg/injection, schedule: Q01DX009 (ip), vehicle: saline) is 172 % of control; the T/C (dose: 84.5 mg/kg/injection, schedule: Q01DX009 (ip), vehicle: saline) was 150 % of control.
Regarding `Cc1ccc(S(=O)(=O)F)cc1N`, the T/C by setting is: (dose: 25.0 mg/kg/injection, schedule: Q01DX009 (ip), vehicle: carboxymethylcellulose (CMC)) 95 % of control and 100 % of control; (dose: 25.0 mg/kg/injection, schedule: Q04DX002 (ip), vehicle: carboxymethylcellulose (CMC)) 100 % of control and 106 % of control; under setting [8], 104 % of control and 87 % of control; (dose: 50.0 mg/kg/injection, schedule: Q01DX009 (ip), vehicle: carboxymethylcellulose (CMC)) 103 % of control and 88 % of control; (dose: 50.0 mg/kg/injection, schedule: Q04DX002 (ip), vehicle: carboxymethylcellulose (CMC)) 93 % of control and 100 % of control; (dose: 50.0 mg/kg/injection, schedule: Q04DX003 (ip), vehicle: carboxymethylcellulose (CMC)) 98 % of control and 90 % of control. Moreover, the T/C reads like this: under setting [9], 101 % of control and 104 % of control; (dose: 100.0 mg/kg/injection, schedule: Q04DX002 (ip), vehicle: carboxymethylcellulose (CMC)) 107 % of control and 90 % of control; (dose: 100.0 mg/kg/injection, schedule: Q04DX003 (ip), vehicle: carboxymethylcellulose (CMC)) 94 % of control and 87 % of control; under setting [10], 106 % of control and 111 % of control; (dose: 200.0 mg/kg/injection, schedule: Q04DX003 (ip), vehicle: carboxymethylcellulose (CMC)) 96 % of control and 87 % of control.
`Cc1ccc(S(=O)(=O)c2ccc(C)cc2)cc1`: the T/C runs as follows: under setting [8], 96 % of control; under setting [9], 111 % of control; under setting [10], 100 % of control; under setting [11], 105 % of control.
As to `O=C(O)C1(Nc2ccc(-c3ccc(NC4(C(=O)O)CCCC4)cc3)cc2)CCCC1`, the T/C reads like this: under setting [8], 90 % of control; under setting [9], 90 % of control; under setting [10], 88 % of control; under setting [11], 88 % of control.
As to `COc1ccc2c(c1)C(=O)CCC2(C)C`, the T/C under setting [7] is 100 % of control, the T/C under setting [1] was 86 % of control and the T/C under setting [3] was 105 % of control.
